According to patent US12162935B2, “Regimens, compositions and methods with capsaicin and TNF-alpha inhibitor” (priority 2018, dated 2024):

Experiments:
CB2 receptor = experiment: Immunoblotting for CB1 and CB2 receptors; format: cell-based, mouse; conditions: capsaicin 2.5 μM 24 h
Experimental: FIG. 10.A. UBOC-1 cells were treated with capsaicin (2.5 μM) for 24 h. Total protein was extracted and immunoblotting was performed for CB1 and CB2 receptors. B-actin was used for housekeeping and loading control. Capsaicin increased CB2 receptor staining. FIG. 10.B. Cochleae were harvested from rats treated with either oral PBS or oral capsaicin (20 mg/kg) for 24 h. Total RNA was harvested, converted to c-DNA and probed for CB2 receptor expression by q-PCR. GAPDH was used as housekeeping gene. […] FIG. 10.C. and FIG. 10.D. Cochleae were harvested from rats treated with PBS, fixed in 4% paraformaldehyde in PBS for 8 h. They were then decalcified in EDTA (10 mM), and mid modiolar sections of the cochleae were probed for the cannabinoid receptors subtypes, CB1 (FIG. 10.C.) and CB2 (FIG. 10.D.), while nuclei were stained with DAPI. Fluorescent images were obtained with a Leica confocal microscope. […] Magnification for OHC, spiral ganglion cells and stria vascularis (40×). Similar images were obtained from 3 different animals.
Total cell lysates were prepared using ice-cold lysis buffer containing 50 mM Tris HCl, 10 mM MgCl2 and 1 mM EDTA in the presence of protease inhibitors mixture and phosphatase inhibitor 1 (1:100) (Sigma, St. Louis, MO). The lysates were kept on ice for 5 min followed by centrifugation. The clear supernatant was transferred to a clean tube and discarded the pellet. […]

rat cochlea = experiment: Immunolabelling of mid-modiolar cochlear sections, fluorescent intensity analyses; format: in vivo
Experimental: Cochleae were perfused with a 4% paraformaldehyde solution, cochleae were decalcified for 7-10 days in 120 mM EDTA, embedded them in paraffin and then sectioned the specimens [Mukherjea et al., 2010]. Slides were deparaffined, rehydrated and then stained with primary and secondary antibodies. Glass coverslips were mounted on the specimens with ProLong Diamond mounting medium. Images were obtained using a Leica confocal microscope (Buffalo Grove, IL).
Image J software was used to analyze the mean gray area for the various images. These values were then used to quantify the increase or decrease in % fluorescence intensity of the various regions of the samples compared to control.

## COc1cc(CNC(=O)CCCC/C=C/C(C)C)ccc1O [capsaicin, 8-methyl-N-vanillyl-trans-6-nonenamide]
CB2 receptor
  CB2 expression: increased CB2 expression
Rat cochlea; capsaicin pre-treatment
  TRPV1, NOX3 and iNOS protein expression induced by cisplatin: significantly decreased
Rat cochlea; capsaicin pretreatment before cisplatin
  CB2 expression in three regions of the cochleae: significantly increased the expression of CB2
Rat cochlea; oral capsaicin pretreatment, compared to cisplatin
  p-STAT3/p-STAT1 ratio in cochlear regions: significantly increased
Rat cochlea; single agent
  CB2 labelling in the OHCs, SGs and SVA: increased CB2 labelling in all the three regions to an even greater extent
Rat cochlea; single agent vs control
  TRPV1, NOX3 and iNOS labelling in the OHCs, SG and SVA: did not produce significant change
Rat cochlea; single agent, 72 h, vs oral PBS
  p-STAT3/p-STAT1 ratio in cochlear regions: increased the p-STAT3/p-STAT1 ratio in all the three regions of the organ of Corti significantly
